{
  "source": "patent US7148204B2",
  "about": "“Antisense modulation of bcl-x expression” (Isis Pharmaceuticala, Inc., priority 1998, dated 2006)",
  "note": "In the oligonucleotide strings, read from the 5' end, every base follows the letter of its sugar. An asterisk marks phosphorothioate; unmarked linkages are phosphodiester. Other units and linkages are bracketed, terminal groups are in braces. A string of capitals states the bases alone. e = 2'-O-(2-methoxyethyl) (MOE); [5mC] = 5-methylcytosine; d = 2'-deoxy (DNA)",
  "data": [
    {"tested_on": "human bcl-x mRNA", "experiment": "Northern blot analysis of bcl-x mRNA levels in A549 cells", "format": "cell-based", "details": "200 nM chimeric oligonucleotide", "protocol": "(§1) Eighteen hours after antisense treatment, cell monolayers were washed twice with cold PBS and lysed in 1 mL RNAZOL™ (TEL-TEST “B” Inc., Friendswood, Tex.). Total RNA was prepared following manufacturer's recommended protocols. Twenty micrograms of total RNA was fractionated by electrophoresis through 1.2% agarose gels containing 1.1% formaldehyde using a MOPS buffer system (AMRESCO, Inc. Solon, Ohio). RNA was transferred from the gel to HYBOND™-N+ nylon membranes (Amersham Pharmacia Biotech, Piscataway, N.J.) by overnight capillary transfer using a Northern/Southern Transfer buffer system (TEL-TEST “B” Inc., Friendswood, Tex.). RNA transfer was confirmed by UV visualization. Membranes were fixed by UV cross-linking using a STRATALINKER™ UV Crosslinker 2400 (Stratagene, Inc, La Jolla, Calif.).\n(§2) Membranes were probed using QUICKHYB™ hybridization solution (Stratagene, La Jolla, Calif.) using manufacturer's recommendations for stringent conditions with an 822-base pair bcl-x specific probe prepared by PCR from bases 33–855 of human bcl-xl sequence (Boise et al., 1993, Cell 74:597–608; GenBank accession no. L20121). To normalize for variations in loading and transfer efficiency membranes were stripped and probed for glyceraldehyde-3-phosphate dehydrogenase (GAPDH) RNA (Clontech, Palo Alto, Calif.). Hybridized membranes were visualized and quantitated using a PHOSPHORIMAGER™ and IMAGEQUANT™ Software V3.3 (Molecular Dynamics, Sunnyvale, Calif.). Data was normalized to GAPDH levels in untreated controls.\n(§3) Oligonucleotides were tested by Northern blot analysis as described in Example 14. Oligonucleotides were tested in A549 cells at a concentration of 400 nM. The results are Table 2:\n(§4) Oligonucleotides were tested by Northern blot analysis as described in Example 14. Chimeric oligonucleotides were in A549 cells at a concentration of 200 nM. Where present, “N.D.” indicates “not determined”.", "units": {"% CONTROL (bcl-x mRNA levels)": "%", "% INHIB (bcl-x mRNA levels)": "%"}, "values": [
      {"substance": "15998 (antisense eT*eA*eA*eT*eA*dG*dG*dG*dA*dT*dG*dG*dG*dC*dT*e[5mC]*eA*eA*e[5mC]*e[5mC]) [compound 15998]", "% CONTROL (bcl-x mRNA levels)": 13, "% INHIB (bcl-x mRNA levels)": 87},
      {"substance": "15999 (antisense eT*e[5mC]*e[5mC]*e[5mC]*eG*dG*dT*dT*dG*dC*dT*dC*dT*dG*dA*eG*eA*e[5mC]*eA*eT) [compound 15999]", "% CONTROL (bcl-x mRNA levels)": 4, "% INHIB (bcl-x mRNA levels)": 96},
      {"substance": "16000 (antisense eG*eG*eG*e[5mC]*e[5mC]*dT*dC*dA*dG*dT*dC*dC*dT*dG*dT*eT*e[5mC]*eT*e[5mC]*eT) [compound 16000]", "% CONTROL (bcl-x mRNA levels)": 4, "% INHIB (bcl-x mRNA levels)": 96},
      {"substance": "16001 (antisense eT*e[5mC]*e[5mC]*eA*eT*dC*dT*dC*dC*dG*dA*dT*dT*dC*dA*eG*eT*e[5mC]*e[5mC]*e[5mC]) [compound 16001]", "% CONTROL (bcl-x mRNA levels)": 17, "% INHIB (bcl-x mRNA levels)": 83},
      {"substance": "16002 (antisense eA*eG*eG*eT*eG*dC*dC*dA*dG*dG*dA*dT*dG*dG*dG*eT*eT*eG*e[5mC]*e[5mC]) [compound 16002]", "% CONTROL (bcl-x mRNA levels)": 8, "% INHIB (bcl-x mRNA levels)": 92},
      {"substance": "16003 (antisense eA*eG*eT*eG*eG*dC*dT*dC*dC*dA*dT*dT*dC*dA*dC*e[5mC]*eG*e[5mC]*eG*eG) [compound 16003]", "% CONTROL (bcl-x mRNA levels)": 12, "% INHIB (bcl-x mRNA levels)": 88},
      {"substance": "16004 (antisense e[5mC]*eT*eT*eG*e[5mC]*dT*dT*dT*dA*dC*dT*dG*dC*dT*dG*e[5mC]*e[5mC]*eA*eT*eG) [compound 16004]", "% CONTROL (bcl-x mRNA levels)": 5, "% INHIB (bcl-x mRNA levels)": 95},
      {"substance": "16005 (antisense eG*e[5mC]*e[5mC]*eG*eG*dT*dA*dC*dC*dG*dC*dA*dG*dT*dT*e[5mC]*eA*eA*eA*e[5mC]) [compound 16005]", "% CONTROL (bcl-x mRNA levels)": 17, "% INHIB (bcl-x mRNA levels)": 83},
      {"substance": "16006 (antisense e[5mC]*eT*eG*eT*eT*dC*dA*dA*dA*dG*dC*dT*dC*dT*dG*eA*eT*eA*eT*eG) [compound 16006]", "% CONTROL (bcl-x mRNA levels)": 28, "% INHIB (bcl-x mRNA levels)": 72},
      {"substance": "16007 (antisense eT*eA*e[5mC]*e[5mC]*e[5mC]*dC*dA*dT*dC*dC*dC*dG*dG*dA*dA*eG*eA*eG*eT*eT) [compound 16007]", "% CONTROL (bcl-x mRNA levels)": 31, "% INHIB (bcl-x mRNA levels)": 69},
      {"substance": "16010 (antisense eT*e[5mC]*e[5mC]*eA*eA*dG*dC*dT*dG*dC*dG*dA*dT*dC*dC*eG*eA*e[5mC]*eT*e[5mC]) [compound 16010]", "% CONTROL (bcl-x mRNA levels)": 13, "% INHIB (bcl-x mRNA levels)": 87},
      {"substance": "16011 (antisense e[5mC]*eT*eG*eG*eA*dT*dC*dC*dA*dA*dG*dG*dC*dT*dC*eT*eA*eG*eG*eT) [compound 16011]", "% CONTROL (bcl-x mRNA levels)": 31, "% INHIB (bcl-x mRNA levels)": 69},
      {"substance": "16014 (antisense eA*eG*e[5mC]*eG*eT*dT*dC*dC*dT*dG*dG*dC*dC*dC*dT*eT*eT*e[5mC]*eG*eG) [compound 16014]", "% CONTROL (bcl-x mRNA levels)": 22, "% INHIB (bcl-x mRNA levels)": 78},
      {"substance": "16015 (antisense eG*eT*e[5mC]*eA*eT*dG*dC*dC*dC*dG*dT*dC*dA*dG*dG*eA*eA*e[5mC]*e[5mC]*eA) [compound 16015]", "% CONTROL (bcl-x mRNA levels)": 12, "% INHIB (bcl-x mRNA levels)": 88},
      {"substance": "16018 (antisense eG*eA*eG*eG*eG*dT*dA*dG*dA*dG*dT*dG*dG*dA*dT*eG*eG*eT*e[5mC]*eA) [compound 16018]", "% CONTROL (bcl-x mRNA levels)": 40, "% INHIB (bcl-x mRNA levels)": 60},
      {"substance": "16019 (antisense eG*eG*eA*eG*eG*dA*dT*dG*dT*dG*dG*dT*dG*dG*dA*eG*e[5mC]*eA*eG*eA) [compound 16019]", "% CONTROL (bcl-x mRNA levels)": 40, "% INHIB (bcl-x mRNA levels)": 60}
    ]},
    {"tested_on": "human bcl-x mRNA", "experiment": "Northern blot analysis of bcl-x mRNA levels in A549 cells", "format": "cell-based", "details": "400 nM oligonucleotide", "protocol": "as §1, §2, §3, §4", "units": {"% CONTROL (bcl-x mRNA levels)": "%", "% INHIB (bcl-x mRNA levels)": "%"}, "values": [
      {"substance": "11219 (antisense dC*dG*dG*dG*dT*dT*dC*dT*dC*dC*dT*dG*dG*dT*dG*dG*dC*dA*dA*dT) [compound 11219]", "% CONTROL (bcl-x mRNA levels)": 6, "% INHIB (bcl-x mRNA levels)": 94},
      {"substance": "11220 (antisense dC*dA*dG*dT*dG*dT*dC*dT*dG*dG*dT*dC*dA*dT*dT*dT*dC*dC*dG*dA) [compound 11220]", "% CONTROL (bcl-x mRNA levels)": 12, "% INHIB (bcl-x mRNA levels)": 88},
      {"substance": "11221 (antisense dA*dG*dC*dC*dC*dA*dG*dC*dA*dG*dA*dA*dC*dC*dA*dC*dG*dC*dC*dG) [compound 11221]", "% CONTROL (bcl-x mRNA levels)": 11, "% INHIB (bcl-x mRNA levels)": 89},
      {"substance": "11222 (antisense dG*dT*dT*dG*dA*dA*dG*dC*dG*dT*dT*dC*dC*dT*dG*dG*dC*dC*dC*dT) [compound 11222]", "% CONTROL (bcl-x mRNA levels)": 35, "% INHIB (bcl-x mRNA levels)": 65},
      {"substance": "11223 (antisense dC*dA*dG*dT*dG*dC*dC*dC*dC*dG*dC*dC*dG*dA*dA*dG*dG*dA*dG*dA) [compound 11223]", "% CONTROL (bcl-x mRNA levels)": 9, "% INHIB (bcl-x mRNA levels)": 91},
      {"substance": "11224 (antisense dT*dC*dG*dC*dC*dT*dG*dC*dC*dT*dC*dC*dC*dT*dC*dA*dG*dC*dG*dC) [compound 11224]", "% CONTROL (bcl-x mRNA levels)": 6, "% INHIB (bcl-x mRNA levels)": 94},
      {"substance": "11225 (antisense dC*dA*dG*dT*dG*dG*dC*dT*dC*dC*dA*dT*dT*dC*dA*dC*dC*dG*dC*dG) [compound 11225]", "% CONTROL (bcl-x mRNA levels)": 25, "% INHIB (bcl-x mRNA levels)": 75},
      {"substance": "11226 (antisense dA*dT*dT*dC*dA*dG*dT*dC*dC*dC*dT*dT*dC*dT*dG*dG*dG*dG*dC*dC) [compound 11226]", "% CONTROL (bcl-x mRNA levels)": 34, "% INHIB (bcl-x mRNA levels)": 66},
      {"substance": "11227 (antisense dA*dA*dA*dG*dT*dC*dA*dA*dC*dC*dA*dC*dC*dA*dG*dC*dT*dC*dC*dC) [compound 11227]", "% CONTROL (bcl-x mRNA levels)": 10, "% INHIB (bcl-x mRNA levels)": 90},
      {"substance": "11228 (antisense dC*dC*dG*dG*dT*dT*dG*dC*dT*dC*dT*dG*dA*dG*dA*dC*dA*dT*dT*dT) [compound 11228]", "% CONTROL (bcl-x mRNA levels)": 31, "% INHIB (bcl-x mRNA levels)": 69},
      {"substance": "11229 (antisense dA*dC*dC*dA*dG*dT*dC*dC*dA*dT*dT*dG*dT*dC*dC*dA*dA*dA*dA*dC) [compound 11229]", "% CONTROL (bcl-x mRNA levels)": 60, "% INHIB (bcl-x mRNA levels)": 40},
      {"substance": "11230 (antisense dG*dA*dA*dG*dG*dG*dA*dG*dA*dG*dA*dA*dA*dG*dA*dG*dA*dT*dT*dC) [compound 11230]", "% CONTROL (bcl-x mRNA levels)": 135},
      {"substance": "11993 (antisense dT*dC*dA*dT*dT*dC*dA*dC*dT*dA*dC*dC*dT*dG*dT*dT*dC*dA*dA*dA) [compound 11993]", "% CONTROL (bcl-x mRNA levels)": 142}
    ]},
    {"tested_on": "human bcl-x mRNA", "experiment": "Northern blot analysis of bcl-x mRNA levels in A549 cells", "format": "cell-based", "details": "dose-response, Northern blot", "protocol": "as §1, §2, §3, §4", "units": {"IC50": "nM"}, "values": [
      {"substance": "11224 (antisense dT*dC*dG*dC*dC*dT*dG*dC*dC*dT*dC*dC*dC*dT*dC*dA*dG*dC*dG*dC) [compound 11224]", "IC50": "~175"},
      {"substance": "CGGGTTCTCCTGGTGGCAAT (all phosphorothioate, sugars by position and methylation of C not given here; further chemistry not fully specified) [ISIS 11219]", "IC50": "~250"}
    ]}
  ]
}
